Assay results reported in patent US20250320193A1, “OXOISOINDOLINYL SUBSTITUTED PIPERIDINEDIONE DERIVATIVE AND USE THEREOF” (GLUETACS THERAPEUTICS (SHANGHAI) CO., LTD., priority 2022, published 2025).

Tests used:
[1] = target: human Cereblon WT GST-tagged protein (Homo sapiens (Human), UniProt Q96SW2); test: CRBN-binding affinity, HTRF (CEREBLON BINDING kit, CISBIO); settings: HTRF inhibitory activity
Summary of the method: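 HTRF competition format: test compound displaces Thalidomide-Red from GST-tagged human Cereblon WT, detected with a Eu-labelled anti-GST antibody. Percent CRBN binding inhibition was derived from the 620 nm signal, normalized to solvent-control and protein-free blank wells.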

IKZF3 = IKZF3 (Homo sapiens (Human), UniProt Q96SW2+Q9UKT9); test: Western blot, substrate protein expression in hPBMC: IKZF3; format: cell-based; settings: hPBMC, compound 500 nM, 24 hours, Western blot
Summary of the method: (§1)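 hPBMC, 1×10^6 cells/mL, 24 h compound exposure; RIPA lysis, BCA protein assay, SDS-PAGE, NC membrane immunoblot. Densitometry vs internal control → % protein remaining; degradation % = 100% − remaining; DC50 = conc. at 50% of DMSO band signal.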

IKZF1 = IKZF1 (Homo sapiens (Human), UniProt Q13422+Q96SW2); test: Western blot, substrate protein expression in hPBMC: IKZF1; format: cell-based; settings: hPBMC, compound 500 nM, 24 hours, Western blot
Summary of the method: as §1

GSPT1 = GSPT1 (Homo sapiens (Human), UniProt P15170+Q96SW2); test: Western blot, substrate protein expression in hPBMC: GSPT1; format: cell-based; settings: hPBMC, compound 500 nM, 24 hours, Western blot
Summary of the method: as §1

Chain of human Cereblon WT GST-tagged protein (Q96SW2 whole entry): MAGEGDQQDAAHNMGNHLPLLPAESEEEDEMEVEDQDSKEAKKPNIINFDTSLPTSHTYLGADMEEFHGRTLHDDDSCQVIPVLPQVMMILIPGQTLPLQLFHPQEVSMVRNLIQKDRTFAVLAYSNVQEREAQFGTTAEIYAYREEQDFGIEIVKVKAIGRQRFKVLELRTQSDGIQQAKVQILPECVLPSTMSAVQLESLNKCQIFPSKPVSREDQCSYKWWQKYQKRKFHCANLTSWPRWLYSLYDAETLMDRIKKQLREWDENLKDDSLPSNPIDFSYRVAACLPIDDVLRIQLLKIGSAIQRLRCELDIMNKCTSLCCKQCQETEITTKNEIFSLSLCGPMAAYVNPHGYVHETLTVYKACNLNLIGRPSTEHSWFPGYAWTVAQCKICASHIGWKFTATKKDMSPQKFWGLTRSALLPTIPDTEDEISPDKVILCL
Chain of IKZF1 (Q13422 whole entry): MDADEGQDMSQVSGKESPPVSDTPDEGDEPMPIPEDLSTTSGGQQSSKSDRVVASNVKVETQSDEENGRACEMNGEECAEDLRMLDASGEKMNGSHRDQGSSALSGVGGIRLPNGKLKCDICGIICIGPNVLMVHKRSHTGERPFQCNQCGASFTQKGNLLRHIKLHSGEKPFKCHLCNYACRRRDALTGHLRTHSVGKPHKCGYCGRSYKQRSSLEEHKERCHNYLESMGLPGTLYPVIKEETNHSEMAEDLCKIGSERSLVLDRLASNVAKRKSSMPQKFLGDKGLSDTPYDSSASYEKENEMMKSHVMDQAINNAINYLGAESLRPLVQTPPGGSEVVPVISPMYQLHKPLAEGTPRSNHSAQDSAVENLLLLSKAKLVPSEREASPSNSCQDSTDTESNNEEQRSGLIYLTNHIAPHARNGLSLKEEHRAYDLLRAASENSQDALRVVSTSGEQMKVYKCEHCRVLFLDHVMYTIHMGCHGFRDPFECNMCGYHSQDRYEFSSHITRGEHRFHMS
Chain of IKZF1 (Q96SW2 whole entry): as the sequence (Q96SW2 whole entry) above
Chain of IKZF1 (Q16531 whole entry partner): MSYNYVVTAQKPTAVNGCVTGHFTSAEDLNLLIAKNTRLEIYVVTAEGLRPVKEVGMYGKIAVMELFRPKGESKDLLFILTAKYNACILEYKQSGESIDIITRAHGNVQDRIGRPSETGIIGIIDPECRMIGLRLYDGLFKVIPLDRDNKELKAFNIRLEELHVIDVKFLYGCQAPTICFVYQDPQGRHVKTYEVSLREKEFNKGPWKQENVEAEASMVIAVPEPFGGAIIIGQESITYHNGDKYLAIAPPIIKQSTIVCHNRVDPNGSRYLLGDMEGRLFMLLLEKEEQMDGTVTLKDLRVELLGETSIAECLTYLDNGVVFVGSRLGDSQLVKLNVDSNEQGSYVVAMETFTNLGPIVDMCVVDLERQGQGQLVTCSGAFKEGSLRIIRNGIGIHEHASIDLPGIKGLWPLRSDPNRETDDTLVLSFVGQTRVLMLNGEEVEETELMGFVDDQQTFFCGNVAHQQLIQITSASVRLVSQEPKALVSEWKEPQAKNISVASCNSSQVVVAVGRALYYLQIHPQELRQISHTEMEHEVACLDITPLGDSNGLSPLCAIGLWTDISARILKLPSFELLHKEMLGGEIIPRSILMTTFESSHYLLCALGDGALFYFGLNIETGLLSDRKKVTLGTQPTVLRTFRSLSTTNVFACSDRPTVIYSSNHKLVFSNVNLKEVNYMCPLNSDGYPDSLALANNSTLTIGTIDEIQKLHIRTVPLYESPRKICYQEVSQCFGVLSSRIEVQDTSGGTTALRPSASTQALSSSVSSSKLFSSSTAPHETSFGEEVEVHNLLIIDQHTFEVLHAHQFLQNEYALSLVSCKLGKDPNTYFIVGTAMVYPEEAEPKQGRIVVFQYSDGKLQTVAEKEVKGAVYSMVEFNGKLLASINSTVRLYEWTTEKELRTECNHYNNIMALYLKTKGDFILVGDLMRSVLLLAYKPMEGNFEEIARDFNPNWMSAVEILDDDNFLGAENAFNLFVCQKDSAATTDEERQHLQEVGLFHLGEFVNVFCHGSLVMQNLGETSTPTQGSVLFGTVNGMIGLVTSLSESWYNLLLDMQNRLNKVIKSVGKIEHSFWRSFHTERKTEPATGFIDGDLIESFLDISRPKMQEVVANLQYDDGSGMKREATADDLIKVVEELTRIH
Chain of IKZF3 (Q9UKT9 whole entry): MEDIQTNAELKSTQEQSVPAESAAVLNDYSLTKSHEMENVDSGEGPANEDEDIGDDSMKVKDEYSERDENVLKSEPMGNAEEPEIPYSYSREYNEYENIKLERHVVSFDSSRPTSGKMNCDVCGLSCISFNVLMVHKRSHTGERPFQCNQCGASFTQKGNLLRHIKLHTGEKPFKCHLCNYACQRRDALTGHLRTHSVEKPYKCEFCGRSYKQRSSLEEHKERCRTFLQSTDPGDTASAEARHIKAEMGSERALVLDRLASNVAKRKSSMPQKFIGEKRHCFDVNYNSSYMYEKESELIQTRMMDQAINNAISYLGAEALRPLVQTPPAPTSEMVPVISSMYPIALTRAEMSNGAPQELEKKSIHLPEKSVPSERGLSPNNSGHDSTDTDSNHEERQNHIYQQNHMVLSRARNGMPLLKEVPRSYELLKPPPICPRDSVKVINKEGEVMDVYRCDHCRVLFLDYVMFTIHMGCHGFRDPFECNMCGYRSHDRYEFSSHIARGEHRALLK
Chain of IKZF3 (Q96SW2 whole entry): as the sequence (Q96SW2 whole entry) above
Chain of IKZF3 (Q16531 whole entry partner): as the sequence (Q16531 whole entry partner) above
Chain of GSPT1 (P15170 whole entry): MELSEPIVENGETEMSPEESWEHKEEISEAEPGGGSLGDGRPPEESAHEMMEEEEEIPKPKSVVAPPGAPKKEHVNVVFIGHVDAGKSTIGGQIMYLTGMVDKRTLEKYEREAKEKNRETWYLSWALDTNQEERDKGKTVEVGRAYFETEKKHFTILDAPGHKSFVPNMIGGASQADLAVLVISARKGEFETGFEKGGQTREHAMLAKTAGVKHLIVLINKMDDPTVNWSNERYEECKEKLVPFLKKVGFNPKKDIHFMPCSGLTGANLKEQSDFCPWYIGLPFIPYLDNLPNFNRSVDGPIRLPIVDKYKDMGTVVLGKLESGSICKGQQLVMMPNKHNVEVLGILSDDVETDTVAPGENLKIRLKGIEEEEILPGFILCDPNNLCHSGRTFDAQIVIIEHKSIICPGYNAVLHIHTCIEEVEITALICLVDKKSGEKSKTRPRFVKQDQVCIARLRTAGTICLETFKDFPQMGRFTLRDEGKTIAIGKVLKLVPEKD
Chain of GSPT1 (Q96SW2 whole entry): as the sequence (Q96SW2 whole entry) above
Chain of GSPT1 (Q16531 whole entry partner): as the sequence (Q16531 whole entry partner) above

| IC50 [1] | SMILES | substrate protein remaining % IKZF3 (IKZF3) | substrate protein remaining % IKZF1 (IKZF1) | substrate protein remaining % GSPT1 (GSPT1) |
| --- | --- | --- | --- | --- |
| < 500 nM | O=C1CCC(N2Cc3cc(CN4CCN(C(c5ccc(F)cc5)c5ccc(F)cc5)CC4)cc(F)c3C2=O)C(=O)N1 (stereo not shown) [GT-03565, 3-(5-((4-(bis(4-fluorophenyl)methyl)piperazin-1-yl)methyl)-7-fluoro-1-oxoisoindolin-2-yl)piperidine-2,6-dione] | B (B represents substrate protein remaining % > 50%) | B (B represents substrate protein remaining % > 50%) | A (A represents 0% ≤ substrate protein remaining % ≤ 50%) |
| 1000 to 1900 nM | O=C1CCC(N2Cc3c(ccc(CN4CCN(C(c5ccc(Cl)cc5)c5ccc(Cl)cc5)CC4)c3F)C2=O)C(=O)N1 (stereo not shown) [GT-03567, 3-(5-((4-(bis(4-chlorophenyl)methyl)piperazin-1-yl)methyl)-4-fluoro-1-oxoisoindolin-2-yl)piperidine-2,6-dione] | A (A represents 0% ≤ substrate protein remaining % ≤ 50%) | B (B represents substrate protein remaining % > 50%) | A (A represents 0% ≤ substrate protein remaining % ≤ 50%) |
| < 500 nM | O=C1CCC(N2Cc3cc(CN4C[C@H]5C[C@@H]4CN5C(c4ccccc4)c4ccccc4)ccc3C2=O)C(=O)N1 (stereo partly drawn) [GT-03570, 3-(5-(((1R,4R)-5-benzhydryl-2,5-diazabicyclo[2.2.1]heptan-2-yl)methyl)-1-oxoisoindolin-2-yl)piperidine-2,6-dione] | B (B represents substrate protein remaining % > 50%) | B (B represents substrate protein remaining % > 50%) | A (A represents 0% ≤ substrate protein remaining % ≤ 50%) |
| < 500 nM | C[C@@H]1CN(C(c2ccccc2)c2ccccc2)CCN1Cc1ccc2c(c1)CN(C1CCC(=O)NC1=O)C2=O (stereo partly drawn) [GT-03571, 3-(5-(((R)-4-benzhydryl-2-methylpiperazin-1-yl)methyl)-1-oxoisoindolin-2-yl)piperidine-2,6-dione] | B (B represents substrate protein remaining % > 50%) | B (B represents substrate protein remaining % > 50%) | A (A represents 0% ≤ substrate protein remaining % ≤ 50%) |
| 500 to 1000 nM | C[C@@H]1CN(C(c2ccccc2)c2ccccc2)CCN1Cc1ccc2c(c1F)CN(C1CCC(=O)NC1=O)C2=O (stereo partly drawn) [GT-03574, 3-(5-(((R)-4-benzhydryl-2-methylpiperazin-1-yl)methyl)-4-fluoro-1-oxoisoindolin-2-yl)piperidine-2,6-dione] | B (B represents substrate protein remaining % > 50%) | B (B represents substrate protein remaining % > 50%) | A (A represents 0% ≤ substrate protein remaining % ≤ 50%) |
| 500 to 1000 nM | O=C1CCC(N2Cc3c(CN4CCN(C(c5ccc(F)cc5)c5ccc(F)cc5)CC4)cccc3C2=O)C(=O)N1 (stereo not shown) [GT-03647, 3-(4-((4-(bis(4-fluorophenyl)methyl)piperazin-1-yl)methyl)-1-oxoisoindolin-2-yl)piperidine-2,6-dione] | B (B represents substrate protein remaining % > 50%) | B (B represents substrate protein remaining % > 50%) | A (A represents 0% ≤ substrate protein remaining % ≤ 50%) |
| < 500 nM | O=C1CCC(N2Cc3cc(CN4C[C@@H]5C[C@H]4CN5C(c4ccccc4)c4ccccc4)ccc3C2=O)C(=O)N1 (stereo partly drawn) [GT-03721, 3-(5-(((1S,4S)-5-benzhydryl-2,5-diazabicyclo[2.2.1]heptan-2-yl)methyl)-1-oxoisoindolin-2-yl)piperidine-2,6-dione] | A (A represents 0% ≤ substrate protein remaining % ≤ 50%) | B (B represents substrate protein remaining % > 50%) | A (A represents 0% ≤ substrate protein remaining % ≤ 50%) |
|  | O=C1CCC(N2C(=O)c3ccc(C(=O)N4CCN(C(c5ccc(C(F)(F)F)cc5)c5ccc(C(F)(F)F)cc5)CC4)cc3C2=O)C(=O)N1 (stereo not shown) [GT-06217, 5-(4-(bis(4-(trifluoromethyl)phenyl)methyl)piperazine-1-carbonyl)-2-(2,6-dioxopiperidin-3-yl) isoindoline-1,3-dione] | B (B represents substrate protein remaining % > 50%) | B (B represents substrate protein remaining % > 50%) | A (A represents 0% ≤ substrate protein remaining % ≤ 50%) |
|  | CC1(C)CN(C(=O)c2ccc3c(c2)C(=O)N(C2CCC(=O)NC2=O)C3=O)CCN1C(c1ccccc1)c1ccccc1 (stereo not shown) [GT-06278, 5-(4-benzhydryl-3,3-dimethylpiperazine-1-carbonyl)-2-(2,6-dioxopiperidin-3-yl) isoindoline-1,3-dione] | B (B represents substrate protein remaining % > 50%) | B (B represents substrate protein remaining % > 50%) | A (A represents 0% ≤ substrate protein remaining % ≤ 50%) |
|  | O=C1CCC(N2Cc3cc(CN4CCN(C(c5ccc(OCc6ccccc6)cc5)c5ccc(OCc6ccccc6)cc5)CC4)ccc3C2=O)C(=O)N1 (stereo not shown) [GT-06424, 3-(5-((4-(bis(4-(benzyloxy)phenyl)methyl)piperazin-1-yl)methyl)-1-oxoisoindolin-2-yl)piperidine-2,6-dione] | A (A represents 0% ≤ substrate protein remaining % ≤ 50%) | B (B represents substrate protein remaining % > 50%) | A (A represents 0% ≤ substrate protein remaining % ≤ 50%) |
|  | O=C1CCC(N2C(=O)c3ccc(CN4CCN(C(c5ccc(OCc6ccccc6)cc5)c5ccc(OCc6ccccc6)cc5)CC4)cc3C2=O)C(=O)N1 (stereo not shown) [GT-06425, 5-((4-(bis(4-(benzyloxy)phenyl)methyl)piperazin-1-yl)methyl)-2-(2,6-dioxopiperidin-3-yl) isoindoline-1,3-dione] | A (A represents 0% ≤ substrate protein remaining % ≤ 50%) | B (B represents substrate protein remaining % > 50%) | A (A represents 0% ≤ substrate protein remaining % ≤ 50%) |
|  | O=C1CCC(N2C(=O)c3ccc(C(=O)N4CCN(C(c5ccc(OCc6ccccc6)cc5)c5ccc(OCc6ccccc6)cc5)CC4)cc3C2=O)C(=O)N1 (stereo not shown) [GT-06558, 5-(4-(bis(4-(benzyloxy)phenyl)methyl)piperazine-1-carbonyl)-2-(2,6-dioxopiperidin-3-yl) isoindoline-1,3-dione] | B (B represents substrate protein remaining % > 50%) | A (A represents 0% ≤ substrate protein remaining % ≤ 50%) | A (A represents 0% ≤ substrate protein remaining % ≤ 50%) |
|  | O=C1CCC(N2C(=O)c3ccc(C(=O)N4CCN(C(c5cc(F)cc(F)c5)c5cc(F)cc(F)c5)CC4)cc3C2=O)C(=O)N1 (stereo not shown) [GT-06598, 5-(4-(bis(3,5-difluorophenyl)methyl)piperazine-1-carbonyl)-2-(2,6-dioxopiperidin-3-yl) isoindoline-1,3-dione] | B (B represents substrate protein remaining % > 50%) | B (B represents substrate protein remaining % > 50%) | A (A represents 0% ≤ substrate protein remaining % ≤ 50%) |
|  | O=C1CCC(N2C(=O)c3ccc(CN4CCN(C(c5ccccc5)c5ccc(Br)cc5)CC4)cc3C2=O)C(=O)N1 (stereo not shown) [GT-06639, 5-((4-((4-bromophenyl) (phenyl)methyl)piperazin-1-yl)methyl)-2-(2,6-dioxopiperidin-3-yl) isoindoline-1,3-dione] | A (A represents 0% ≤ substrate protein remaining % ≤ 50%) | A (A represents 0% ≤ substrate protein remaining % ≤ 50%) | A (A represents 0% ≤ substrate protein remaining % ≤ 50%) |

| SMILES | IC50 [1] | substrate protein remaining % IKZF3 (IKZF3) | substrate protein remaining % IKZF1 (IKZF1) | substrate protein remaining % GSPT1 (GSPT1) |
| --- | --- | --- | --- | --- |
| O=C1CCC(N2Cc3cc(CN4C5CC4CN(C(c4ccccc4)c4ccccc4)C5)ccc3C2=O)C(=O)N1 (stereo not shown) [GT-03569, 3-(5-((3-benzhydryl-3,6-diazabicyclo[3.1.1]heptan-6-yl)methyl)-1-oxoisoindolin-2-yl)piperidine-2,6-dione] | 500 to 1000 nM | A (A represents 0% ≤ substrate protein remaining % ≤ 50%) | B (B represents substrate protein remaining % > 50%) | A (A represents 0% ≤ substrate protein remaining % ≤ 50%) |
| O=C1CCC(N2Cc3cc(CN4C5CC4CN(C(c4ccccc4)c4ccccc4)C5)cc(F)c3C2=O)C(=O)N1 (stereo not shown) [GT-03575, 3-(5-((3-benzhydryl-3,6-diazabicyclo[3.1.1]heptan-6-yl)methyl)-7-fluoro-1-oxoisoindolin-2-yl)piperidine-2,6-dione] | 500 to 1000 nM | B (B represents substrate protein remaining % > 50%) | B (B represents substrate protein remaining % > 50%) | A (A represents 0% ≤ substrate protein remaining % ≤ 50%) |
| O=C1CCC(N2Cc3cc(CN4CC5CCC(C4)N5C(c4ccccc4)c4ccccc4)ccc3C2=O)C(=O)N1 (stereo not shown) [GT-03722, 3-(5-((8-benzhydryl-3,8-diazabicyclo[3.2.1]octan-3-yl)methyl)-1-oxoisoindolin-2-yl)piperidine-2,6-dione] | < 500 nM | A (A represents 0% ≤ substrate protein remaining % ≤ 50%) | A (A represents 0% ≤ substrate protein remaining % ≤ 50%) | A (A represents 0% ≤ substrate protein remaining % ≤ 50%) |
